Reference: ChEMBL document CHEMBL1201862, “PubChem BioAssay data set” (2004)
The source made the active and inactive calls. No stated cut-off is given here; in the data, actives have a measured IC50 and inactives only a lower limit.

What was measured:
Type in all cases: functional
Caspase-3 = target: T1, Caspase-3 (Homo sapiens, UniProt P42574);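 further: Dose-response selectivity test against caspase-3 for candidate inhibitors of sentrin-specific proteases (SENPs)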
T1 sequence (P42574 whole entry): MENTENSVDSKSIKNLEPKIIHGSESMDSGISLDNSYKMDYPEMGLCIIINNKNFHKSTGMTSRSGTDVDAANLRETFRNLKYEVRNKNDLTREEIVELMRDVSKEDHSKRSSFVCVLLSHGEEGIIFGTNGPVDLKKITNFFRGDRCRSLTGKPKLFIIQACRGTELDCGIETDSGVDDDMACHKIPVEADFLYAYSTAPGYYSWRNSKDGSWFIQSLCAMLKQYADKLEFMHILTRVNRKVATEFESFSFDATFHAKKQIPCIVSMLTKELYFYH

[1] = target: T2, Sentrin-specific protease 7 (Homo sapiens, UniProt Q9BQF6);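 further: Luminescence-based dose-response confirmation of ultra-high-throughput screening hits, measuring inhibition of SENP7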
T2 sequence (Q9BQF6 whole entry): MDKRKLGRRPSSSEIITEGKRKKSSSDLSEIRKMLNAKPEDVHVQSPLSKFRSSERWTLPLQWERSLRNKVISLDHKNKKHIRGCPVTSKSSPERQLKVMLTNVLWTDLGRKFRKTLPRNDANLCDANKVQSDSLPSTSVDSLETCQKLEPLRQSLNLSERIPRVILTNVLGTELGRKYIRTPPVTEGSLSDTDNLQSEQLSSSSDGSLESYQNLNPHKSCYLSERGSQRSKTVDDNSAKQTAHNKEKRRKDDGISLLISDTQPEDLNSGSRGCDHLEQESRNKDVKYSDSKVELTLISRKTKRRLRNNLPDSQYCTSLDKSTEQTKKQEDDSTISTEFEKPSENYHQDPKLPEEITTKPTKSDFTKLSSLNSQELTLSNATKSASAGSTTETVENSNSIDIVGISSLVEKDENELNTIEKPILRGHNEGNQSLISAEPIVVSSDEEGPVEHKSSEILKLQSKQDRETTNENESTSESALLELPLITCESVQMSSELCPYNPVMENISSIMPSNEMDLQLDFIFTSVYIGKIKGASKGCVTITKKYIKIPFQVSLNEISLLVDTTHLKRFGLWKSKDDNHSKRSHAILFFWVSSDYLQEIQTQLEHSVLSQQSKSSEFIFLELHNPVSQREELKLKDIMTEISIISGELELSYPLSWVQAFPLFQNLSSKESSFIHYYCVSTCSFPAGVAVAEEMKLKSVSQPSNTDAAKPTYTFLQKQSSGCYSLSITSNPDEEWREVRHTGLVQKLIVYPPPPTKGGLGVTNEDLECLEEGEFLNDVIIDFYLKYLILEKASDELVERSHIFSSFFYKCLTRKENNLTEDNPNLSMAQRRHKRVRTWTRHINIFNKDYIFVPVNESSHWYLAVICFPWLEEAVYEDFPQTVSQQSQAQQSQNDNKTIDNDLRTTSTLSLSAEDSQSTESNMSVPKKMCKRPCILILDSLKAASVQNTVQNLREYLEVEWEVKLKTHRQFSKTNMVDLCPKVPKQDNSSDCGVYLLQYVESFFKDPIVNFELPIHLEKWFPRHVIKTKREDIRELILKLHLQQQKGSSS

[2] = target: T3, Sentrin-specific protease 6 (Homo sapiens, UniProt Q9GZR1);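 further: Luminescence-based dose-response confirmatory assay of SENP6 inhibition, following up an ultra-high-throughput screen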
T3 sequence (Q9GZR1 whole entry): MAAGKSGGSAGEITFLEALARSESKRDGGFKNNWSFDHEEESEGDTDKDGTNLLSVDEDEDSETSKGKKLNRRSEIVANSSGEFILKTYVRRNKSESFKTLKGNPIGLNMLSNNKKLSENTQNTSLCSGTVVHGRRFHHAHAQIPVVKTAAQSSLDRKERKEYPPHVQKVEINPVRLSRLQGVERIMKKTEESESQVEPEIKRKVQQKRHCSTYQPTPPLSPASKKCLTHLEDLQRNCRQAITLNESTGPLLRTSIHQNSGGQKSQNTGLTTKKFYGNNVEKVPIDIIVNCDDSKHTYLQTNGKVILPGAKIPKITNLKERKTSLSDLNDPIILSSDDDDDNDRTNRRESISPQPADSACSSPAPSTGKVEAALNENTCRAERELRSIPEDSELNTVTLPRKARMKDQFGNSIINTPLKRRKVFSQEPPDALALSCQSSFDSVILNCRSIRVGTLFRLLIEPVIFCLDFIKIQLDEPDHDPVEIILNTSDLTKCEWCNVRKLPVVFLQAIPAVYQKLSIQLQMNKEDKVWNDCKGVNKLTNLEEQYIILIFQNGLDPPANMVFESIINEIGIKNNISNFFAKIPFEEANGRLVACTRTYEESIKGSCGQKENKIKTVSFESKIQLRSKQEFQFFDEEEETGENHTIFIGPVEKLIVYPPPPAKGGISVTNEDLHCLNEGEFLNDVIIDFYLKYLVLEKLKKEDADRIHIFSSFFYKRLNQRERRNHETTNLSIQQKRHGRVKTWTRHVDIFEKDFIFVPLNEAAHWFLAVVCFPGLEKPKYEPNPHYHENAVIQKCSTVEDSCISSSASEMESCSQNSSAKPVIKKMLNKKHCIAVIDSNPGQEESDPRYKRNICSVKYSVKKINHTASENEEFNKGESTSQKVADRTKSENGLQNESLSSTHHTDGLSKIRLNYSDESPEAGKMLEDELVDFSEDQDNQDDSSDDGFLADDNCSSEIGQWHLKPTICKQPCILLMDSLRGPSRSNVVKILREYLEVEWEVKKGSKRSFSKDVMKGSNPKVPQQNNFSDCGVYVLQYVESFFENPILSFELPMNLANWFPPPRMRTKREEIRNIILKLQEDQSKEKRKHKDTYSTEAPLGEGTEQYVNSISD

[3] = target: T4, Sentrin-specific protease 8 (Homo sapiens, UniProt Q96LD8);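 further: luminescence read-out of SENP8 inhibition, dose-response confirmation following an ultra-high-throughput screen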
T4 sequence (Q96LD8 whole entry): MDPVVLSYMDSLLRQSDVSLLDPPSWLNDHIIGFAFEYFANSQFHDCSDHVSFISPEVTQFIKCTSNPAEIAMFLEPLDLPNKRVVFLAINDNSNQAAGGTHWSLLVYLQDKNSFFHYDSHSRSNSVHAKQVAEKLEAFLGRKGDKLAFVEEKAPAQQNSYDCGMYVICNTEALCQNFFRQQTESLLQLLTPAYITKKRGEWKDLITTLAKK

SMILES | IC50 (Caspase-3) | IC50 [1] | IC50 [2] | IC50 [3]
COc1ccc(/C=N/Nc2cc(N(C)C)nc(N(C)C)n2)cc1 | > 100 µM (inactive) | 54.5 µM (active) | 5.62 µM (active) | 5.78 µM (active)
C/C(=N\c1cccc(C)c1)c1sc2ccccc2c1O | 17.4 µM (active) | 4.75 µM (active) | 12.7 µM (active) | 10.7 µM (active)
